Measurements taken from patent US4927808A, “γ-L-glutamyl-L-cysteine ethyl ester and pharmaceutical compositions containing the same as an effective ingredient” (Teijin Limited, priority 1986, dated 1990).
Like-named read-outs stand apart in the source and are kept apart here.

What was measured:
[1] = system: liver cells; test: Recovery of cellular glutathione levels after decrease by D,L-buthionine sulfoximine and removal of the inhibitor; assay type: cell-based, mice; conditions: untreated = 100
Description: (§1) D, L-buthionine sulfoximine was added to the cultured liver cells to a density of 0.5 mM and cultivation was carried on for 16 hours. […] The changes of cellular glutathione levels were measured at that time. Thereafter the compounds studied were removed from the respective cultures whose culture media were then replaced with new ones containing carbon tetrachloride at a density of 0.5 μl/ml. After 1-hour cultivation, the action to prevent the necrosis of liver cells was examined by measuring the GPT activity of the respective culture supernatants and Trypan Blue staining test.
(§2) In Table 3, the changes of cellular glutathione levels are expressed by relative values based on the untreated value set at 100 and the action to prevent the necrosis of liver cells is indicated by the GPT activity of the culture supernatant and survival rate.

[2] = system: liver cells; test: Mitigation of decrease in glutathione levels in liver cells on coexistence with D,L-buthionine sulfoximine; assay type: cell-based, mice; conditions: 13 hours later, 100 = before addition
Description: The cultured liver cells were cultured for 13 hours after the addition of D,L-buthionine sulfoximine to the concentration of 0.3 mM and the present compound to the concentration of 1 mM and then the levels of cellular glutathione were measured. The similar measurements were made on the controls in which nothing was added and in which D,L-buthionine sulfoximine only was added.

[3] = system: experimentally developed cataract induced by L-buthionine sulfoximine; test: Protective effect on experimental cataract induced by L-buthionine sulfoximine; assay type: in vivo, mice; conditions: 16th day after birth
From the text: The cataract development rate in the table means the ratio of the experimental animals developing cataract to all the animals examined (11 to 12 mice per group) and the cataractous eye rate means the ratio of cataractous eyes to the whole number of eyes examined.

[4] = system: ICR male mice; test: Recovery of tissue glutathione levels in mice pretreated with L-buthionine sulfoximine; assay type: in vivo; conditions: 2.5 mmol/kg s.c. 4 times, day after L-buthionine sulfoximine 4 mmol/kg x4
Description: ICR male mice (9-day old) were given L-buthionine sulfoximine in dosage of 4 mmol/kg four times at an interval of 2.5 hours to decrease their tissue glutathione levels beforehand. The next day, the mice were given subcutaneously 2.5 mmol/kg of the present compound or saline 4 times at an interval of 2.5 hours. Glutathione monoethyl ester (GSHOET) was also given likewise in dosage of 2.5 mmol/kg as a control. The contents of glutathione in the livers and kidneys were measured according to the methods described in Example 6.

[5] = system: ICR male mice; test: Detoxification of renal toxicity induced by cisplatin (BUN); assay type: in vivo; conditions: cisplatin 20 mg/kg i.p. + compound 2.5 mmol/kg i.p. 4 times a day for 5 days; one week after cisplatin
From the text: The control groups were given saline instead of the present compound.

[6] = system: liver cells; test: Prevention of necrosis of liver cells by carbon tetrachloride (GPT activity, Trypan Blue staining); assay type: cell-based, mice; conditions: 1 mM for 2 hours after D,L-buthionine sulfoximine removal, then carbon tetrachloride 0.5 μl/ml for 1 hour; for Survival rate: Trypan Blue
Description: as §1, §2

[7] = system: ICR male mice; test: Action to increase tissue glutathione levels in mice; assay type: in vivo; conditions: 9-day old mice
Description: ICR male mice (9-day old) were subcutaneously given 2.5 mmol/kg of the compound of this invention (r-Glu-Cys OET) or control compounds (glutathione (GSH), γ-L-glutamyl-L-cysteine (r-Glu-Cys)) four times at 2.5-hour intervals. The mice were dissected and their livers and kidneys were removed before the administration and every 2.5 hour after the administration to have their glutathione (GSH) level determined. […]

[8] = system: liver cells; test: Recovery of glutathione levels of liver cells after carbon tetrachloride treatment; assay type: cell-based, mice; conditions: 100 = before treatment
Description: After carbon tetrachloride was added to the cultured liver cells at a concentration of 0.5 μl/ml, culture was continued for 1 hour. […] One hour later, the change of the cellular glutathione level was measured.

[9] = system: mouse newborns; conditions: for Effect on increment of animals' body weight suppressed by the toxicity of BSO: mouse, in vivo; for Surviving rate: after the ending of administration
Description: Experimental cataract was prepared according to the method of Calvin et al., Science, vol. 233, pp 553-555 (1986). More particularly, L-buthioninesulfoximine was administered subcutaneously to the ICR male mice at a dose of 4 mmol/kg for 3 successive days from the 9th day to the 11th day after birth every 2.5 hours 4 times a day to cause cataract. The rate of cataractgenesis was determined on the 16th day after birth. The test compounds were also given subcutaneously for 3 days from the 9th day to the 11th day after birth 4 times a day 1 hour before the administration of L-buthionine sulfoximine and thereafter the test compounds studied only were subcutaneously given 4 times a day at an interval of 2.5 hours on the consecutive 12th and 13th days after birth and the protective effect of the test compound on cataract formation was examined on the 16th day after birth. As the control compounds, glutathione, glutathione monoethyl ester, and γ-L-glutamyl-L-cysteine were also examined.
Acute toxicity of the present compound was examined where it is administered according to the schedule of Example 9 and compared with there of controls, glutathione, glutathione monoethyl ester, and γ-L-glutamyl-L-cysteine.

[10] = system: ICR male mice; test: Mitigation of decrease of tissue glutathione levels, compound and L-buthionine sulfoximine given alternately to mice; assay type: in vivo; conditions: 2.5 mmol/kg s.c. alternately with L-buthionine sulfoximine 4 mmol/kg; versus saline
Description: The compound of this invention was administered in the same way as Example 6, and L-buthionine sulfoximine (BSO) was administered likewise in dosage of 4 mmol/kg one hour after every administration of said compound. The contents of glutathione in the livers and kedneys were measured according to the methods described in Example 6 every 2.5 hours after the initial administration of the present compound. As controls, saline was administered in place of the present compound to take the similar measurements. FIGS. 2A and 2B shown the results.

[11] = system: liver cells; test: Action to increase the glutathione levels in the liver cells (primary cultured hepatocytes); assay type: cell-based, mice; conditions: 1 mM, 100 = before addition
Description: Hepatocyte (sample) was prepared according to the method of Nakamura et al. published in the Protein, Nucleic Acid, and Enzyme, vol. 24, pp 55-76 (1981), partly adopting the method of Wang et al. reported in the In Vitro, vol. 21, pp 526-530 (1985). The liver of mice was purfused with 0.05% collagenase, and cells were collected by centrifugation, and were further centrifuged with percoll to collect the parenchymal hepatocytes. The obtained hepatocytes were dispersed in the Williams' medium E containing 10% bovine fetal serum, dexamethasone (10^-6 M), insulin (1 μg/ml), and antibiotic, and were inoculated into the culture plate at a density of 1×10^5 cells/0.2 ml/cm^2. After unattached cells were removed once 1.5 hours later, the cultivation was continued at 37° C. in an atomosphere of 5% CO2 -95% air. The compound of this invention was added to the culture system to a concentration of 1 mM to measure the time lapsed changes of the cellular glutathione level according to the method reported by Owens and Belcher, Biochem. J., vol. 94, pp 705-711 (1965) and Tietze, Anal. Biochem., vol. 27, pp 502-522 (1969). The similar measurements were also made without the addition of the compound for comparison.

[12] = cited from earlier work
[13] = 1 mM added for 2 hours after removal of D,L-buthionine sulfoximine (0.5 mM, 16 hours)
[14] = L-buthionine sulfoximine + compound 1.25 mmol/kg s.c.
[15] = L-buthionine sulfoximine + compound 2.50 mmol/kg s.c.
[16] = 2.5 mmol/kg subcutaneously four times at 2.5-hour intervals
[17] = L-buthionine sulfoximine 4 mmol/kg alone
[18] = L-buthionine sulfoximine + compound 1.25 mmol/kg
[19] = L-buthionine sulfoximine + compound 2.5 mmol/kg

With `CCCCS(=N)(=O)CCC(N)C(=O)O` [D,L-buthionine sulfoximine, D,L-buthionine-sulfoximine, reference compound] the “Cellular glutathion level (relative value)” value ([1]; D,L-buthionine sulfoximine 0.5 mM, 16 hours) was 1 and the “Cellular glutathione level (relative value)” value ([2]; D,L-buthionine sulfoximine 0.3 mM alone) was 17.

With `CCOC(=O)[C@H](CS)NC(=O)CC[C@H](N)C(=O)O` [γ-L-glutamyl-L-cysteine ethyl ester] the “Cellular glutathion level (relative value)” value [1, 13] was 50, the “Cellular glutathione level (relative value)” value ([2]; coexistence of D,L-buthionine sulfoximine 0.3 mM and compound 1 mM) was 30 and the Cataract development rate [3, 14] was 50.0%. It also gave a Cataractous eye rate [3, 14] of 41.7%, a Cataract development rate [3, 15] of 0% and a Cataractous eye rate [3, 15] of 0%. For the same compound, the “Recovery of tissue glutathione level, kidney (FIG. 3B)” value [4] was “far more excellent effect in making the tissular glutathion level recover to the normal level as compared with glutathione monoethyl ester”, the “Recovery of tissue glutathione level, liver (FIG. 3A)” value [4] was “same effectiveness as glutathione monoethyl ester” and the BUN [5] was 35.7 mg/dL. For the same compound, the “GPT activity of culture supernatant” value [6] was 3 until/ml, the Survival rate [6] was 100% and the “Tissue glutathione level, kidney (FIG. 1B)” value [7, 16] was “far more excellent effect than glutathione and γ-L-glutamyl-L-cysteine in increasing the tissue glutathione levels”. For the same compound, the “Tissue glutathione level, liver (FIG. 1A)” value [7, 16] was “far more excellent effect than glutathione and γ-L-glutamyl-L-cysteine in increasing the tissue glutathione levels”, the “SH levels in eyeballs, DTNB method (FIG. 1C)” value ([7]; 5 mmol/kg) was “improve the SH levels remarkably” and the “Cellular glutathione level (relative value)” value ([8]; 1 mM added after removal of carbon tetrachloride, one hour later) was 67. For the same compound, the “Effect on increment of animals' body weight suppressed by the toxicity of BSO” value (from here on “Effect on increment”) [9] was “showed an effect to mitegate suppressed increment of animals' body weight”, the “Tissue glutathione level, kidney (FIG. 2B)” value [10] was “mitigate the decrease of tissue glutathione levels” and the “Tissue glutathione level, liver (FIG. 2A)” value [10] was “mitigate the decrease of tissue glutathione levels”. For the same compound, the “Cellular glutathione level (relative value)” value ([11]; 0.5 hours) was 140, the “Cellular glutathione level (relative value)” value ([11]; 1 hour) was 170 and the “Cellular glutathione level (relative value)” value ([11]; 2 hours) was 200.

For `CCCCS(=N)(=O)CCC(N)C(=O)O` [L-buthionine sulfoximine, reference compound], the Cataract development rate [3, 17] was 91.7%, the Cataractous eye rate [3, 17] was 91.7% and the Surviving rate [9, 17] was 100%.

For `N[C@@H](CCC(=O)N[C@@H](CS)C(=O)O)C(=O)O` [γ-L-glutamyl-L-cysteine], the “Cellular glutathion level (relative value)” value [1, 13] was 10, the Cataract development rate [3, 14] was 66.7% and the Cataractous eye rate [3, 14] was 77.8%. For the same compound, the “GPT activity of culture supernatant” value [6] was 60 until/ml, the Survival rate [6] was 10% and the Surviving rate [9, 18] was 75%. The Surviving rate [9, 19] was 0% and the “Effect on increment” value [9] was “such effect was not seen”.

For `ClC(Cl)(Cl)Cl` [carbon tetrachlodie, carbon tetrachloride, reference compound], the “Cellular glutathione level (relative value)” value ([8]; after carbon tetrachloride 0.5 μl/ml, 1 hour) was 33.

For `N[C@@H](CCC(=O)N[C@@H](CS)C(=O)NCC(=O)O)C(=O)O` [Glutathione, glutathione], the “Cellular glutathion level (relative value)” value [1, 13] was 10, the Cataract development rate [3, 14] was 75.0% and the Cataractous eye rate [3, 14] was 70.8%. The “GPT activity of culture supernatant” value [6] was 60 until/ml, the Survival rate [6] was 10% and the Surviving rate [9, 18] was 100%. The Surviving rate [9, 19] was 50%, the “Effect on increment” value [9] was “such effect was not seen” and the “half life in blood” value [12] was “several minutes”.

`CCOC(=O)[C@H](CSSC[C@H](NC(=O)CC[C@H](N)C(=O)O)C(=O)OCC)NC(=O)CC[C@H](N)C(=O)O` [γ-L-glutamyl-L-cystein ethyl ester of oxidized type dimer] showed a Cataract development rate [3, 15] of 30.0%, a Cataractous eye rate [3, 15] of 35.0% and a Surviving rate [9, 19] of 100%.
